Changes are numbered by the printed parent chain. Where “and” joins values, the source holds several entries; their conditions need not be identical. Identical values can stand only once. Like-named read-outs stand apart in the source and are kept apart here.
Key:
hTA1 V184P = biological target: T1, hTA1 V184P (Homo sapiens, UniProt Q96RJ0, V184P); test: GloSensor cAMP accumulation assay, V184P mutant; format: cell-based; conditions: for cAMP accumulation response, single replicate values (source data, Supplementary Figure 5): hTA1 V184P (N=2), log[Compound]
T1 construct: expressed in transfected cells; host or cells: HEK293T
T1 sequence (Q96RJ0 1-339 V184P): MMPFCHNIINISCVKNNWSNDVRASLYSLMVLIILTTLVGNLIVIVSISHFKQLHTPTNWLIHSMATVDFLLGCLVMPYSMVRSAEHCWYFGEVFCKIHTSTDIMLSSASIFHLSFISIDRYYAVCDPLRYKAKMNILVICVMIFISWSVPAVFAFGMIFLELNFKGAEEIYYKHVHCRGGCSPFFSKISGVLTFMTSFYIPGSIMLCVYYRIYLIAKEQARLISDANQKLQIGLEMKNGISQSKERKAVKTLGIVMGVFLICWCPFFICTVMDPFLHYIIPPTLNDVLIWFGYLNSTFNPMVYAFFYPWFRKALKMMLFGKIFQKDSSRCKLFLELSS

hTA1 b2N = biological target: T2, hTA1 b2N (Homo sapiens, UniProt Q96RJ0); test: GloSensor cAMP accumulation assay, b2N construct; format: cell-based; conditions: b2N; n=2; read-out: Span ± SEM (Emax normalized to β-PEA)
T2 construct: read by me as the first 25 residues of β2AR (N); expressed in transfected cells; host or cells: HEK293T

hTA1 R83H = biological target: T3, hTA1 R83H (Homo sapiens, UniProt Q96RJ0, R83H); test: GloSensor cAMP accumulation assay, R83H mutant; format: cell-based;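 note: cells transiently co-expressing hTA1 and a cAMP GloSensor, luminescence read 30 min after agonist addition at room temperature, concentration–response fitted by non-linear regression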
T3 construct: expressed in transfected cells; host or cells: HEK293T
T3 sequence (Q96RJ0 1-339 R83H): T1 sequence (Q96RJ0 1-339 V184P) with R83H, P184V

hTA1 T194A = biological target: T4, hTA1 T194A (Homo sapiens, UniProt Q96RJ0, T194A); test: GloSensor cAMP accumulation assay, T194A mutant; conditions: for cAMP accumulation response, individual replicate values of the concentration-response curve: hTA1 T194A, log[Agonist], Supplementary Figure 5 source data
T4 sequence (Q96RJ0 1-339 T194A): T1 sequence (Q96RJ0 1-339 V184P) with P184V, T194A

hTA1 C178S = biological target: T5, hTA1 C178S (Homo sapiens, UniProt Q96RJ0, C178S); test: GloSensor cAMP accumulation assay, C178S mutant; format: cell-based; conditions: for C178S - Normalized Luminescence Counts (N=2): log[Compound], single replicates
T5 construct: expressed in transfected cells; host or cells: HEK293T
T5 sequence (Q96RJ0 1-339 C178S): T1 sequence (Q96RJ0 1-339 V184P) with C178S, P184V

[1] = hTA1 V184P mutant minus WT average

T2 sequence (Q96RJ0 with tags, fused parts or gaps): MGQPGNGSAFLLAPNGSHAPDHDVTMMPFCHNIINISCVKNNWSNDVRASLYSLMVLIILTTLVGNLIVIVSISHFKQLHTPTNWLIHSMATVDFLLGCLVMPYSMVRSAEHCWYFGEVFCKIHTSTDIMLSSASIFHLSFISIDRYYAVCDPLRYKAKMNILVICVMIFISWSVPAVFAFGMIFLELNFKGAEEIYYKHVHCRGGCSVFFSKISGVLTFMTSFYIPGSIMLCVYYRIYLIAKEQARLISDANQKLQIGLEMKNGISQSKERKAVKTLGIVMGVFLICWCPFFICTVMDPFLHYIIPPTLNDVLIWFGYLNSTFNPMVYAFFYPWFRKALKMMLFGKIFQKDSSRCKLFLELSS

## CCc1[nH]nc(C(=O)Nc2ccc([C@H]3CNCCO3)cc2)c1C [ralmitaront]
hTA1 V184P; V184P
  reduction in potency vs wild type: 2.5 fold
hTA1 V184P; V184P, n=2, read-out: Span ± SEM (Emax normalized to β-PEA)
  Emax: 48.73 ± 0.14%
hTA1 V184P; M = -5
  cAMP accumulation response, single replicate values (source data, Supplementary Figure 5): 56.1002 and 44.9467 and 51.6388 and 50.9599 and 51.6929 and 37.8383
hTA1 V184P; M = -5.522
  cAMP accumulation response, single replicate values (source data, Supplementary Figure 5): 38.6425 and 44.6557 and 34.0841 and 47.4046 and 55.1382 and 34.8694
hTA1 V184P; M = -6
  cAMP accumulation response, single replicate values (source data, Supplementary Figure 5): 32.8233 and 40.4853 and 30.6896 and 36.9953 and 42.3832 and 37.3618
hTA1 V184P; M = -6.522
  cAMP accumulation response, single replicate values (source data, Supplementary Figure 5): 24.4824 and 25.4523 and 22.4457 and 22.8108 and 28.9684 and 21.7112
hTA1 V184P; M = -7
  cAMP accumulation response, single replicate values (source data, Supplementary Figure 5): 14.7837 and 10.7102 and 14.2987 and 13.3178 and 19.622 and 12.4015
hTA1 V184P; M = -7.522
  cAMP accumulation response, single replicate values (source data, Supplementary Figure 5): 3.727 and 4.406 and 3.242 and 4.485 and 6.5 and 5.731
hTA1 V184P; M = -8
  cAMP accumulation response, single replicate values (source data, Supplementary Figure 5): 0.5265 and 1.302 and 1.5934 and 2.432 and 2.322 and 1.296
hTA1 V184P; M = -8.522
  cAMP accumulation response, single replicate values (source data, Supplementary Figure 5): 0.2356 and -0.3463 and -0.05538 and 1.699 and 1.076 and 0.2329
hTA1 V184P; M = -9
  cAMP accumulation response, single replicate values (source data, Supplementary Figure 5): 0.3326 and -0.2494 and -1.025 and -0.1703 and -0.2803 and -0.5368
hTA1 V184P; M = -9.522
  cAMP accumulation response, single replicate values (source data, Supplementary Figure 5): -0.8313 and -0.9283 and -1.316 and -0.5002 and -0.3902 and -0.3169
hTA1 V184P; M = -10
  cAMP accumulation response, single replicate values (source data, Supplementary Figure 5): -1.122 (2×) and -0.3463 and -0.94 and -0.3902 and -1.3432
hTA1 V184P; M = -10.522
  cAMP accumulation response, single replicate values (source data, Supplementary Figure 5): -0.9283 and -1.025 and -1.219 and -0.9034 and -1.123 and -1.673
hTA1 V184P; M = -11
  cAMP accumulation response, single replicate values (source data, Supplementary Figure 5): -0.9283 and -1.607 (2×) and -0.3902 (2×) and -0.1703
hTA1 V184P; M = -11.522
  cAMP accumulation response, single replicate values (source data, Supplementary Figure 5): -1.607 (2×) and -1.898 and 0.746 and -0.02371 and -0.5002
hTA1 V184P; M = -12
  cAMP accumulation response, single replicate values (source data, Supplementary Figure 5): -1.607 and -1.219 and -1.51 and -0.6835 and 0.4894 and -0.5735
hTA1 V184P; M = -12.522
  cAMP accumulation response, single replicate values (source data, Supplementary Figure 5): -0.7343 and -1.4132 and -1.025 and -0.6835 and -0.7568 and -1.087
hTA1 V184P; [1]
  ΔEmax values (each mutant value - WT average), Mean: 8.48 and 8.751
  ΔpEC50 values (each mutant value - WT average), Mean: -0.4311 and -0.3552
hTA1 V184P; hTA1 V184P mutant, β-PEA set to 100, each grid row a separate experiment, 3 replicates
  Emax values, Mean: 48.8655
hTA1 V184P; hTA1 V184P mutant, β-PEA set to 100, each grid row a separate experiment, 3 replicates, read-out: Emax values (Mean)
  Emax: 48.6%
hTA1 b2N
  Emax: 82.5 ± 4.39%
hTA1 R83H; R83H mutant minus WT average
  ΔEmax values (each mutant value - WT average): -30.9711
hTA1 R83H; R83H mutant, β-PEA = 100, each line an independent experiment, 3 replicates
  Emax values, Mean: 9.143 and -4.118
hTA1 R83H; R83H, n=2, read-out: Span ± SEM (Emax normalized to β-PEA)
  Emax: 2.51 ± 6.63%
hTA1 T194A; T149A (so in the source), single experiments (3 replicates each), β-PEA = 100
  Emax values, Mean: 41.3499 and 73.0935 and 32.2156
hTA1 T194A; M = -7.522
  cAMP accumulation response, individual replicate values of the concentration-response curve: 13.1191 and 7.983 and 9.958 and 19.2742 and 14.6569 and 26.511
hTA1 T194A; M = -8
  cAMP accumulation response, individual replicate values of the concentration-response curve: 2.846 and 8.97 and 3.241 and 12.5702 and 15.1897 and 10.4391
hTA1 T194A; M = -8.522
  cAMP accumulation response, individual replicate values of the concentration-response curve: 0.8706 and -0.5123 and 0.673 and 2.359 and 3.025 and 2.8472
hTA1 T194A; M = -9
  cAMP accumulation response, individual replicate values of the concentration-response curve: -1.105 and -0.3148 and -1.895 and 1.693 and 2.048 and 2.27
hTA1 T194A; M = -9.522
  cAMP accumulation response, individual replicate values of the concentration-response curve: -1.895 and -1.698 and -1.5 and -0.7934 and 0.4941 and -0.3494
hTA1 T194A; M = -10
  cAMP accumulation response, individual replicate values of the concentration-response curve: -0.9074 and -1.105 (2×) and -0.2606 and -0.1274 and 0.9825
hTA1 T194A; M = -10.522
  cAMP accumulation response, individual replicate values of the concentration-response curve: -2.29 and -1.105 (2×) and -0.971 and -0.5714 and -0.1274
hTA1 T194A; M = -11
  cAMP accumulation response, individual replicate values of the concentration-response curve: -1.105 (2×) and -0.5123 and -0.1274 and -0.527 and -0.3938
hTA1 T194A; M = -11.522
  cAMP accumulation response, individual replicate values of the concentration-response curve: -1.5 and -0.9074 and -1.895 and -0.4826 and 0.2722 and -0.3494
hTA1 T194A; M = -12
  cAMP accumulation response, individual replicate values of the concentration-response curve: -1.105 (2×) and -0.5123 and -0.8378 and -0.9266 and 0.05017
hTA1 T194A; M = -12.522
  cAMP accumulation response, individual replicate values of the concentration-response curve: -0.5123 and -1.105 (2×) and -0.527 and 0.05017 and -0.6158
hTA1 T194A; read-out: Span ± SEM (Emax normalized to β-PEA), T194A
  Emax: 48.9 ± 20.4%
hTA1 C178S; C178S, each row one experiment (N=2), 3 replicates
  ΔpEC50 values (each mutant value - WT average), Mean: -0.4487 and -0.0445
hTA1 C178S; C178S, n=2, read-out: Span ± SEM (Emax normalized to β-PEA)
  Emax: 69.5 ± 2.9%
hTA1 C178S; C178S, relative to β-PEA, read-out: Emax
  Emax: 69.5%
hTA1 C178S; C178S, β-PEA = 100, each row one experiment (N=2), 3 replicates
  Emax values, Mean: 72.4383
hTA1 C178S; C178S, β-PEA = 100, each row one experiment (N=2), 3 replicates, read-out: Emax values, Mean
  Emax: 66.6%
hTA1 C178S; M = -5
  C178S - Normalized Luminescence Counts (N=2): 73.8012 and 62.4927 and 60.9506 and 66.8043 and 64.022 and 61.0303
hTA1 C178S; M = -5.522
  C178S - Normalized Luminescence Counts (N=2): 57.6328 and 63.2871 and 59.3151 and 75.9888 and 75.2109 and 62.2569
hTA1 C178S; M = -6
  C178S - Normalized Luminescence Counts (N=2): 43.2869 and 48.3804 and 55.2496 and 74.2835 and 69.4968
hTA1 C178S; M = -6.522
  C178S - Normalized Luminescence Counts (N=2): 30.9035 and 28.8942 and 35.67 and 44.4265 and 49.1234 and 56.9916
hTA1 C178S; M = -7
  C178S - Normalized Luminescence Counts (N=2): 14.8753 and 16.3239 and 23.7072 and 27.2542 and 34.494 and 27.6431
hTA1 C178S; M = -7.522
  C178S - Normalized Luminescence Counts (N=2): 4.642 and 7.866 and 7.3986 and 13.4924 and 12.7145 and 13.5821
hTA1 C178S; M = -8
  C178S - Normalized Luminescence Counts (N=2): 1.277 and 2.445 and 2.959 and 5.594 and 6.073 and 4.936
hTA1 C178S; M = -8.522
  C178S - Normalized Luminescence Counts (N=2): -0.2183 and 0.7163 and 2.0247 and 0.7179 and 1.526 and 2.842
hTA1 C178S; M = -9
  C178S - Normalized Luminescence Counts (N=2): -0.3585 and 0.1555 and -0.03139 and 0.4785 and 0.3289 and 2.214
hTA1 C178S; M = -9.522
  C178S - Normalized Luminescence Counts (N=2): -1.433 and 1.137 and -0.6389 and -0.0001415 and -0.6284 and -0.3292
hTA1 C178S; M = -10
  C178S - Normalized Luminescence Counts (N=2): -1.1529 and -1.2 and -1.106 and 0.05969 and -0.9575 and -1.5259
hTA1 C178S; M = -10.522
  C178S - Normalized Luminescence Counts (N=2): -0.5454 and -0.2183 and -0.8258 and -2.334 and -1.855 and -2.154
hTA1 C178S; M = -11
  C178S - Normalized Luminescence Counts (N=2): -0.3585 and -0.2183 and -0.4987 and 0.6281 and 0.3589 and 0.4785
hTA1 C178S; M = -11.522
  C178S - Normalized Luminescence Counts (N=2): -0.3585 and -0.07812 and 0.1555 and 0.5384 and -0.08989 and -0.419
hTA1 C178S; M = -12
  C178S - Normalized Luminescence Counts (N=2): -0.966 (2×) and -0.3585 and -0.8079 and -2.005 and -0.9874
hTA1 C178S; M = -12.522
  C178S - Normalized Luminescence Counts (N=2): 1.09 and -0.2183 and -0.8725 and 0.3888 and -1.137 and -2.364

Source: paper PMC10762035, “Molecular basis of human trace amine-associated receptor 1 activation” (Nature Communications, 2024)
